Reference: US20240391931A1 (Bristol-Myers Squibb Company, priority 2021, published 2024)

Legend:
[1] = biological target: HER2YVMA (Homo sapiens, UniProt P04626, INS775YVMA); assay: Enzymatic assay HER2YVMA (method b); type: biochemical; design: purchased Viva biotech, Shanghai, China custom purification; details: [HER2YVMA]=5 nM, [ATP]=25 μM, [Peptide 22]=1 μM
In short: (§1)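 Initial rates over 0–3600 s, read as substrate-to-product conversion by capillary electrophoresis, were converted to percent inhibition and fitted with a variable-slope curve to give IC50. Conditions: EGFR WT 2 nM with 1 mM ATP; HER2 YVMA 5 nM or HER2 WT 12.5 nM, each with 25 μM ATP. All used 1 μM Peptide 22 in pH 7.5 HEPES/Mn/Mg buffer.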

[2] = biological target: T1, HER2 WT (Homo sapiens, UniProt P04626); assay: Enzymatic assay HER2 WT (method a); type: biochemical; details: [HER2 WT]=12.5 nM, [ATP]=25 μM, [Peptide 22]=1 μM
T1 construct: purchased ProQinase, Freiburg, Germany ERBB2 0108-0000-1
T1 sequence (P04626 23-1255): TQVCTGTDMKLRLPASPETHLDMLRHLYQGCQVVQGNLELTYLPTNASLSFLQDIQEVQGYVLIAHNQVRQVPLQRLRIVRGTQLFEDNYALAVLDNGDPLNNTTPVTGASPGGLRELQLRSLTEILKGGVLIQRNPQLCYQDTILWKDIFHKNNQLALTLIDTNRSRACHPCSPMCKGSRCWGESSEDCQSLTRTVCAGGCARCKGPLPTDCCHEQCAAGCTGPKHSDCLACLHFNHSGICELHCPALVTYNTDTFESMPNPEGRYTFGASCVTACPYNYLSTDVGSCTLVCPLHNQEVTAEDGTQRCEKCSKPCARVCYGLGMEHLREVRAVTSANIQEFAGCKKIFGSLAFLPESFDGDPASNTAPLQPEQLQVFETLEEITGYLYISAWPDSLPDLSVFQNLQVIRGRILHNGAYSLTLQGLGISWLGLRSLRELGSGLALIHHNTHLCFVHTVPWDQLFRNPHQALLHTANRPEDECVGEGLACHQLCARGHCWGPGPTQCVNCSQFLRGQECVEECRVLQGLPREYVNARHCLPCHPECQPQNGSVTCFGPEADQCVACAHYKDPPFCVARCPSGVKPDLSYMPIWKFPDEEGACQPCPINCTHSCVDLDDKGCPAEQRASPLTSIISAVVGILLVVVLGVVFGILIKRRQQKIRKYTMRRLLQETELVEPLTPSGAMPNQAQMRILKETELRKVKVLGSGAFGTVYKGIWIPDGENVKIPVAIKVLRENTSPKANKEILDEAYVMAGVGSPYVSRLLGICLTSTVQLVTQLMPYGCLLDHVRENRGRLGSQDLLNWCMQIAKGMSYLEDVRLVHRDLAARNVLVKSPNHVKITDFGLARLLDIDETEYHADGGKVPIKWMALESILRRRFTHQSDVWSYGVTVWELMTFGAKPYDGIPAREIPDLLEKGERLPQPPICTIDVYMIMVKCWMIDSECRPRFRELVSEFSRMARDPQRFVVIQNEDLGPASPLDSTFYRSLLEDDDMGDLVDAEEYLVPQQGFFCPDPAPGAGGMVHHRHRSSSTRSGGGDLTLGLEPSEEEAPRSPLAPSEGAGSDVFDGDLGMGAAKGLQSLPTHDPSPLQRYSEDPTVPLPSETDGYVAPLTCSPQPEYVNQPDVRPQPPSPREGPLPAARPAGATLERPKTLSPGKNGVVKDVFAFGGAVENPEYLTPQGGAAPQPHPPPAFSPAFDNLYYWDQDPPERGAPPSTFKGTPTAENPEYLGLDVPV
In short: as §1

[3] = biological target: T2, HER2 wildtype (WT) protein (Homo sapiens, UniProt P04626); assay: HER2 signaling (pHER2 Tyr1248/total HER2 MSD) in BT474 cells; type: cell-based; details: 1.5 hr compound, 1% FBS
T2 construct: BT474 and N87 cell lines which endogenously overexpress the HER2 wildtype (WT) protein; endogenous in cells; host or cells: BT474, N87
T2 sequence (P04626 23-1255): as above
In short: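 BT474, N87 (HER2 WT) and NCI-H1781 (HER2 G776delinsVC) cells were treated for 1.5 h at 37° C in 1% FBS medium with compound at 0.0005–1.1 μM. pHER2 Tyr1248 was measured by MSD on whole-cell lysates and normalized to total HER2 as % DMSO. EC50 came from a variable-slope sigmoidal fit.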

HER2YVMA, sequence (P04626 with tags, fused parts or gaps INS775YVMA): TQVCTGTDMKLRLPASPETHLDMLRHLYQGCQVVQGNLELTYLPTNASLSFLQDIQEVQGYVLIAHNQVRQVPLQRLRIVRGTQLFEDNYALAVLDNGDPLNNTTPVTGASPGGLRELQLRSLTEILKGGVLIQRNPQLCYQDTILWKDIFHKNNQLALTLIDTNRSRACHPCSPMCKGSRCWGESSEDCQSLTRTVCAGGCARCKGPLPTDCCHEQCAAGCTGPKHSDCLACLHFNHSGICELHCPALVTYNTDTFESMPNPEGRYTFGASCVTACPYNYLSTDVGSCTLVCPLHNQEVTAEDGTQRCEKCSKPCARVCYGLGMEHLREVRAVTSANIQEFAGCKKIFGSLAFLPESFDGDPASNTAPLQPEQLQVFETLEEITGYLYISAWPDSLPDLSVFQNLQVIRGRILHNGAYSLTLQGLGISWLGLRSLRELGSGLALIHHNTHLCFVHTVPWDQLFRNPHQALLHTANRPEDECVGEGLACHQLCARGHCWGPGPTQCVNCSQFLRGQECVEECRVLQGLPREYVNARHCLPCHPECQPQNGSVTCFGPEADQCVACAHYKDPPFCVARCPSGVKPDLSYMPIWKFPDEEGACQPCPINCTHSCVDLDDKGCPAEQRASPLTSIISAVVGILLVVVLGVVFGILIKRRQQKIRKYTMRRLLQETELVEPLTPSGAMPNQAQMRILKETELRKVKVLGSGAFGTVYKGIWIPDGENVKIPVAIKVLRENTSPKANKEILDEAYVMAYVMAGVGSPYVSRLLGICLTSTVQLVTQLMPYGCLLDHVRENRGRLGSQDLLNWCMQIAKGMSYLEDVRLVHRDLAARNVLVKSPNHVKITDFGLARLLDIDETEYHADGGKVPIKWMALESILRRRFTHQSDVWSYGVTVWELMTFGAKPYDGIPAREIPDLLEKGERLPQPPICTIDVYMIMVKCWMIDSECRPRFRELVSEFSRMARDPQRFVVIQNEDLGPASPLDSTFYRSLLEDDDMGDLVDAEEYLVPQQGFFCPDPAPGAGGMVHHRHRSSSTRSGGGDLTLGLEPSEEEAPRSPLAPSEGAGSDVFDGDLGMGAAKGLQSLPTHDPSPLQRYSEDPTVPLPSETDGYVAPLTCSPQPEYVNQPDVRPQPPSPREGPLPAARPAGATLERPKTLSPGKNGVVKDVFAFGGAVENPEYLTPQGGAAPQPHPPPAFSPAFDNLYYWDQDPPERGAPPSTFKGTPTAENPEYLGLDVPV

IC50 [1] [nM] | IC50 [2] [nM] | EC50 [3] [nM] | SMILES
< 100 | < 100 | < 100 | Cc1ccc(Oc2ccc(Nc3ncnc4sc5c(c34)C(C)CN(C(=O)C=CCN(C)C)C5)cc2C)cn1 (single isomer, unassigned) [Compound 106]
100 to 1000 | < 100 | 100 to 350 | CC(=O)N1CCN(C/C=C/C(=O)N2CCc3c(sc4ncnc(Nc5ccc(Oc6ccc(C)nc6)c(C)c5)c34)C2)CC1 [Compound 51]
< 100 | < 100 | < 100 | Cc1ccc(Oc2ccc(Nc3ncnc4sc5c(c34)CCN(C(=O)/C=C/CN3CC4(C3)CS(=O)(=O)C4)C5)cc2C)cn1 [Compound 57]
100 to 1000 | 100 to 1000 | < 100 | Cc1ccc(Oc2ccc(Nc3ncnc4sc5c(c34)CCN(C(=O)/C=C/CN(C)C)CC5)cc2C)cn1 [Compound 100, (E)-4-(dimethylamino)-1-(4-((3-methyl-4-((6-methylpyridin-3-yl)oxy)phenyl)amino)-8,9-dihydro-5H-pyrimido[5′,4′:4,5]thieno[2,3-d]azepin-7(6H)-yl)but-2-en-1-one]
< 100 | < 100 | < 100 | Cc1cc(Nc2ncnc3sc4c(c23)CCN(C(=O)/C=C/CN2CC3C(CO)C3C2)C4)ccc1Oc1ccc2ncnn2c1 (stereo not drawn) [Compound 81]
< 100 | < 100 | < 100 | Cc1ccc(Oc2ccc(Nc3ncnc4sc5c(c34)CCN(C(=O)/C=C/CNC34CCC(C#N)(CC3)CC4)C5)cc2C)cn1 [Compound 72]
< 100 | < 100 | < 100 | Cc1ccc(Oc2ccc(Nc3ncnc4sc5c(c34)CCN(C(=O)/C=C/CNC3CCOC3)C5)cc2C)cn1 (stereo not drawn) [Compound 47]
< 100 | < 100 | < 100 | Cc1ccc(Oc2ccc(Nc3ncnc4sc5c(c34)CCN(C(=O)/C=C/CNC3COC3)C5)cc2C)cn1 [Compound 38]
100 to 1000 | 100 to 1000 | 100 to 350 | Cc1ccc(Oc2ccc(Nc3ncnc4sc5c(c34)CCN(C(=O)/C=C/CN3CCN4C(=O)CCC4C3)C5)cc2C)cn1 (stereo not drawn) [Compound 58]
< 100 | < 100 | < 100 | Cc1ccc(Oc2ccc(Nc3ncnc4sc5c(c34)CCN(C(=O)/C=C/CNCc3cc(C)n[nH]3)C5)cc2C)cn1 [Compound 49]
< 100 | < 100 | < 100 | Cc1ccc(Oc2ccc(Nc3ncnc4sc5c(c34)CCN(C(=O)/C=C/CN3CCC(O)C3)C5)cc2C)cn1 (stereo not drawn) [Compound 74]
< 100 | 100 to 1000 | < 100 | Cc1ccc(Oc2ccc(Nc3ncnc4sc5c(c34)CN(C(=O)/C=C/CN(C)C)C5)cc2C)cn1 [Compound 99, (E)-4-(dimethylamino)-1-(4-((3-methyl-4-((6-methylpyridin-3-yl)oxy)phenyl)amino)-5,7-dihydro-6H-pyrrolo[3′,4′:4,5]thieno[2,3-d]pyrimidin-6-yl)but-2-en-1-one]
< 100 | < 100 | < 100 | Cc1ccc(Oc2ccc(Nc3ncnc4sc5c(c34)CCN(C(=O)/C=C/CN3CC4C(CO)C4C3)C5)cc2C)cn1 (stereo not drawn) [Compound 34]
< 100 | < 100 | < 100 | Cc1ccc(Oc2ccc(Nc3ncnc4sc5c(c34)CCN(C(=O)/C=C/CN[C@H]3CC[C@H](OCC(F)(F)F)CC3)C5)cc2C)cn1 [Compound 70]
< 100 | < 100 | < 100 | Cc1ccc(Oc2ccc(Nc3ncnc4sc5c(c34)CCN(C(=O)/C=C/CNCCO)C5)cc2C)cn1 [Compound 65]
100 to 1000 | 100 to 1000 | < 100 | Cc1cc(Nc2ncnc3sc4c(c23)CCN(C(=O)/C=C/CN2CC3CC2CO3)C4)ccc1Oc1ccc2ncnn2c1 (stereo not drawn) [Compound 77]
< 100 | < 100 | < 100 | Cc1ccc(Oc2ccc(Nc3ncnc4sc5c(c34)CCCN(C(=O)/C=C/CN(C)C)C5)cc2C)cn1 [Compound 101, (E)-4-(Dimethylamino)-1-(4-((3-methyl-4-((6-methylpyridin-3-yl)oxy)phenyl)amino)-6,7-dihydro-5H-pyrimido[5′,4′:4,5]thieno[2,3-c]azepin-8(9H)-yl)but-2-en-1-one]

IC50 [1] [nM] | IC50 [2] [nM] | EC50 [3] [nM] | SMILES
< 100 | < 100 | < 100 | Cc1ccc(Oc2ccc(Nc3ncnc4sc5c(c34)CCN(C(=O)/C=C/CN3CC4CC3CO4)C5)cc2C)cn1 (stereo not drawn) [Compound 26]
< 100 | < 100 | < 100 | C=CC(=O)N1CCc2[nH]c3ncnc(Nc4ccc(Oc5ccc(C)nc5)c(C)c4)c3c2C1 [Compound 94, 1-(4-((3-methyl-4-((6-methylpyridin-3-yl)oxy)phenyl)amino)-7,8-dihydro-5H-pyrido[3′,4′:4,5]pyrrolo[2,3-d]pyrimidin-6(9H)-yl)prop-2-en-1-one]
< 100 | < 100 | < 100 | Cc1ccc(Oc2ccc(Nc3ncnc4sc5c(c34)CCN(C(=O)/C=C/CN[C@H]3CC[C@H](OC4CC4)CC3)C5)cc2C)cn1 [Compound 68]
< 100 | < 100 | < 100 | Cc1cc(Nc2ncnc3sc4c(c23)CCN(C(=O)/C=C/CN(C)C)C4)ccc1Oc1ccc2[nH]ncc2c1 [Compound 22, (E)-1-(4-((4-((1H-indazol-5-yl)oxy)-3-methylphenyl)amino)-5,8-dihydropyrido[4′,3′:4,5]thieno[2,3-d]pyrimidin-7(6H)-yl)-4-(dimethylamino)but-2-en-1-one]
< 100 | < 100 | < 100 | Cc1ccc(Oc2ccc(Nc3ncnc4sc5c(c34)CCN(C(=O)/C=C/CN3CC(O)C3)C5)cc2C)cn1 [Compound 53]
< 100 | < 100 | < 100 | Cc1ccc(Oc2ccc(Nc3ncnc4sc5c(c34)CCN(C(=O)/C=C/CNCc3ccsc3)C5)cc2C)cn1 [Compound 52]
100 to 1000 | 100 to 1000 | < 100 | Cc1cc(Nc2ncnc3sc4c(c23)CCN(C(=O)/C=C/CN2CC(C)OC(C)C2C)C4)ccc1Oc1ccc2ncnn2c1 (stereo not drawn) [Compound 83]
< 100 | < 100 | < 100 | CN(C)C/C=C/C(=O)N1CCc2c(sc3ncnc(Nc4ccc(Oc5ccc6ncnn6c5)c(Cl)c4)c23)C1 [Compound 5, (E)-1-(4-((4-([1,2,4]triazolo[1,5-a]pyridin-6-yloxy)-3-chlorophenyl)amino)-5,8-dihydropyrido[4′,3′:4,5]thieno[2,3-d]pyrimidin-7(6H)-yl)-4-(dimethylamino)but-2-en-1-one]
< 100 | < 100 | < 100 | Cc1ccc(Oc2ccc(Nc3ncnc4sc5c(c34)CCN(C(=O)/C=C/CN(CCO)CCO)C5)cc2C)cn1 [Compound 37]
100 to 1000 | 100 to 1000 | < 100 | CCN1CCN(C/C=C/C(=O)N2CCc3c(sc4ncnc(Nc5ccc(Oc6ccc(C)nc6)c(C)c5)c34)C2)CC1 [Compound 46]
< 100 | < 100 | < 100 | Cc1ccc(Oc2ccc(Nc3ncnc4sc5c(c34)CCN(C(=O)/C=C/CN[C@H]3CCC[C@H](O)C3)C5)cc2C)cn1 [Compound 73]
< 100 | < 100 | < 100 | Cc1ccc(Oc2ccc(Nc3ncnc4sc5c(c34)C(C)CN(C(=O)/C=C/CN(C)C)C5)cc2C)cn1 (stereo not drawn) [Compound 98, (E)-4-(dimethylamino)-1-(5-methyl-4-((3-methyl-4-((6-methylpyridin-3-yl)oxy)phenyl)amino)-5,8-dihydropyrido[4′,3′:4,5]thieno[2,3-d]pyrimidin-7(6H)-yl)but-2-en-1-one]
< 100 | < 100 | < 100 | Cc1ccc(Oc2ccc(Nc3ncnc4sc5c(c34)CCN(C(=O)/C=C/CN(C)C(C)(C)C)C5)cc2C)cn1 [Compound 33]
< 100 | < 100 | < 100 | COc1ccc(Oc2ccc(Nc3ncnc4sc5c(c34)CCN(C(=O)/C=C/CN(C)C)C5)cc2C)cn1 [Compound 95, (E)-4-(Dimethylamino)-1-(4-((4-((6-methoxypyridin-3-yl)oxy)-3-methylphenyl)amino)-5,6-dihydropyrido[4′,3′:4,5]thieno[2,3-d]pyrimidin-7(8H)-yl)but-2-en-1-one]
100 to 1000 | < 100 | < 100 | Cc1cc(Nc2ncnc3sc4c(c23)CCN(C(=O)/C=C/CN(C)C)C4)ccc1Oc1ccc2ncnn2c1 [Compound 3, (E)-1-(4-((4-([1,2,4]triazolo[1,5-a]pyridin-6-yloxy)-3-methylphenyl)amino)-5,8-dihydropyrido[4′,3′:4,5]thieno[2,3-d]pyrimidin-7(6H)-yl)-4-(dimethylamino)but-2-en-1-one]
< 100 | < 100 | < 100 | Cc1ccc(Oc2ccc(Nc3ncnc4sc5c(c34)CCN(C(=O)/C=C/CNCC3CN(C)CCO3)C5)cc2C)cn1 (stereo not drawn) [Compound 48]
< 100 | < 100 | < 100 | Cc1ccc(Oc2ccc(Nc3ncnc4sc5c(c34)CCN(C(=O)/C=C/CN3CCCOCC3)C5)cc2C)cn1 [Compound 42]
